Experimental data: patent US8399521B2, “Methods of treating skin with aromatic skin-active ingredients” (Mary Kay Inc., priority 2008, dated 2013)

How the values were obtained:
Assay type in all cases: biochemical
COX-2 = target: T1, COX-2 (Ovis aries, UniProt P79208); assay: Colorimetric COX (ovine) inhibitor screening assay, COX-2; conditions: 0.001% test compound; for Cox-2 Inhibition (0.001%): negative = inhibition vs non-treated control; for inhibition at 0.001 %: 0.25 h
T1 construct: purchased Cayman Chemical 760111
T1 sequence (P79208 17-603): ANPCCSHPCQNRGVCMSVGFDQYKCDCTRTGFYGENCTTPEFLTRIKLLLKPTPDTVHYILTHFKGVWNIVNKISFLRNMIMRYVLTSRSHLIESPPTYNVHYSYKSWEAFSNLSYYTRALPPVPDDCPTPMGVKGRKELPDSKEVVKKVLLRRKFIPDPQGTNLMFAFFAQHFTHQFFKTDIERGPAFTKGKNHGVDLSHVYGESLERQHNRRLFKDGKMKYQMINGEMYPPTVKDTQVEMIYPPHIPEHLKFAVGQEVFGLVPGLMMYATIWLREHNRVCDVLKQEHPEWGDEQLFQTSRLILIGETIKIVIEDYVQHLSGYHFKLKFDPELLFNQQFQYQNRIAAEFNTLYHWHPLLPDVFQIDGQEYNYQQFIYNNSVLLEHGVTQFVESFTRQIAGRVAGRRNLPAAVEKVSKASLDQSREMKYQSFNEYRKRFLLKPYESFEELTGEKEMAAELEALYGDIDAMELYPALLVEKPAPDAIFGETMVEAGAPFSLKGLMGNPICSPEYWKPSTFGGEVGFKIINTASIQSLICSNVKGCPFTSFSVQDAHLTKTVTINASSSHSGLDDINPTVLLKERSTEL
Text: (§1) Cyclooxygenase (COX) assay: An in vitro cyclooxygenase-1 and -2 (COX-1, -2) inhibition assay. […] The cyclooxygenase activity converts arachidonic acid to a hydroperoxy endoperoxide (Prostaglandin G2; PGG2) and the peroxidase component reduces the endoperoxide (Prostaglandin H2; PGH2) to the corresponding alcohol, the precursor of prostaglandins, thromboxanes, and prostacyclins. This COX Inhibitor Screening Assay measures the peroxidase component of cyclooxygenases. The peroxidase activity is assayed colorimetrically by monitoring the appearance of oxidized N,N,N′,N′-tetramethyl-p-phenylenediamine (TMPD). This inhibitor screening assay includes both COX-1 and COX-2 enzymes in order to screen isozyme-specific inhibitors.
(§2) Following manufacturer instructions for the Colormetric COX (ovine) Inhibitor screening assay (#760111, Cayman Chemical), purified cyclooxygnase enzyme (COX-1 or COX-2), heme and test compounds were mixed in assay buffer and incubated with shaking for 15 min at room temperature. Following incubation, arachidonic acid and colorimetric substrate were added to initiate the reaction and incubated for an additional 15 min at room temperature with shaking. Color progression was evaluated by fluoresecence plate reading at 590 nm. The percent inhibition of COX-1 or COX-2 activity was calculated compared to non-treated controls to determine the ability of test compounds to inhibit the activity of purified enzyme.

COX-1 = target: T2, COX-1 (Ovis aries, UniProt P05979); assay: Colorimetric COX (ovine) inhibitor screening assay, COX-1; conditions: negative = inhibition vs non-treated control; for Cox-1 Inhibition (0.020%): 0.020% test compound, Table 2
T2 construct: purchased Cayman Chemical 760111
T2 sequence (P05979 25-600): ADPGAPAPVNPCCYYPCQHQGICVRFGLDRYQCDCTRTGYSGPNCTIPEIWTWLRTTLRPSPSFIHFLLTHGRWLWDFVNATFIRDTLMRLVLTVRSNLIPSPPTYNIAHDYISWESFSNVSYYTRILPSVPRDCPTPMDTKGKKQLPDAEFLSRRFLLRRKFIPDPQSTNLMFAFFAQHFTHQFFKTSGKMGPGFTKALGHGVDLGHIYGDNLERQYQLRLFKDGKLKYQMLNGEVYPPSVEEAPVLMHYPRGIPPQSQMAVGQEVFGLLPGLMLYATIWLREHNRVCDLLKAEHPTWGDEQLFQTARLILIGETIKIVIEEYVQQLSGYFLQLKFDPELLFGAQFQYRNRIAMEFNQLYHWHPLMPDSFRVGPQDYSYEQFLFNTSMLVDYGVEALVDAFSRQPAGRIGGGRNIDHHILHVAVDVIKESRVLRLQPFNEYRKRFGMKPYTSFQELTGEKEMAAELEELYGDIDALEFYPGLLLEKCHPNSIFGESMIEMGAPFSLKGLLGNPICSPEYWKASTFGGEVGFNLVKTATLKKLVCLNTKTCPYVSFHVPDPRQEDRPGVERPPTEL
Text: as §1, §2

15-lipoxygenase = target: T3, 15-lipoxygenase (Glycine max, UniProt P08170); assay: Lipoxygenase (LO) inhibition assay; conditions: 0.1% test compound; negative = inhibition vs non-treated control; Table 2
T3 construct: purchased Cayman Chemical 760700
T3 sequence (P08170 1-839): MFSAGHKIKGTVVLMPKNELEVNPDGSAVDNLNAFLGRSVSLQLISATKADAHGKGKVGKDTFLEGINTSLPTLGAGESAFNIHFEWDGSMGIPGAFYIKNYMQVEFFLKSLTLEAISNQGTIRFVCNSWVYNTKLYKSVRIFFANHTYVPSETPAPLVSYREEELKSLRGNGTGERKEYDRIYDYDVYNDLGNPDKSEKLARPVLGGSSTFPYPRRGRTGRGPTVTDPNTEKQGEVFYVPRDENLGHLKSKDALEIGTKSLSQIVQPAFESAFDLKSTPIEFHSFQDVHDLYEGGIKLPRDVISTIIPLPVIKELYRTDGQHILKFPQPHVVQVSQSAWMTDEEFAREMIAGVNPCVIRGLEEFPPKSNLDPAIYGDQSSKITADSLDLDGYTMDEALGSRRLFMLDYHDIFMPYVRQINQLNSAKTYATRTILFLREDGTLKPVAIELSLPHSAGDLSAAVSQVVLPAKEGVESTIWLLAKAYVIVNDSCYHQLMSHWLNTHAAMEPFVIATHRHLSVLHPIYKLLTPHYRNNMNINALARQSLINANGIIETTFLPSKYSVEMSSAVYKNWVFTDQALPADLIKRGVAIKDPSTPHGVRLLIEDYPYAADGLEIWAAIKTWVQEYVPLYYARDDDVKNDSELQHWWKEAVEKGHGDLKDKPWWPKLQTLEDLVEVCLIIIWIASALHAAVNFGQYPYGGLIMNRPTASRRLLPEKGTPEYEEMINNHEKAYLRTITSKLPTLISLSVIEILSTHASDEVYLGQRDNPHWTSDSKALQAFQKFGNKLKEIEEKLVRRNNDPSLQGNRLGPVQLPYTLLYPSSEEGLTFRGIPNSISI
Procedure: Lipoxygenase (LO) assay: An in vitro lipoxygenase (LO) inhibition assay. LOs are non-heme iron-containing dioxygenases that catalyze the addition of molecular oxygen to fatty acids. Linoleate and arachidonate are the main substrates for LOs in plants and animals. […] This assay provides an accurate and convenient method for screening lipoxygenase inhibitors by measuring the hydroperoxides generated from the incubation of a lipoxygenase (5-, 12-, or 15-LO) with arachidonic acid.
Following incubation, arachidonic acid was added to initiate the reaction and mixtures incubated for an additional 10 min at room temperature. Colorimetric substrate was added to terminate catalysis and color progression was evaluated by fluorescence plate reading at 490 nm. The percent inhibition of lipoxyganse activity was calculated compared to non-treated controls to determine the ability of test compounds to inhibit the activity of purified enzyme.

MMP3 = target: T4, MMP3 (Homo sapiens, UniProt P08254); assay: Matrix metalloproteinase enzyme activity assay, MMP3; conditions: 0.001% test compound; negative = inhibition vs diluent control; Table 2
T4 construct: purchased BioMol International AK-400
Text: (§3) Matrix metalloproteinase enzyme activity (MMP3; MMP9) assay: An in vitro matrix metalloprotease (MMP) inhibition assay. MMPs are extracellular proteases that play a role in many normal and disease states by virtue of their broad substrate specificity. MMP3 substrates include collagens, fibronectins, and laminin; while MMP9 substrates include collagen VII, fibronectins and laminin. Using Colorimetric Drug Discovery kits from BioMol International for MMP3 (AK-400) and MMP-9 (AK-410), this assay is designed to measure protease activity of MMPs using a thiopeptide as a chromogenic substrate (Ac-PLG-[2-mercapto-4-methyl-pentanoyl]-LG-OC2H5)5,6. The MMP cleavage site peptide bond is replaced by a thioester bond in the thiopeptide. Hydrolysis of this bond by an MMP produces a sulfhydryl group, which reacts with DTNB [5,5′-dithiobis(2-nitrobenzoic acid), Ellman's reagent] to form 2-nitro-5-thiobenzoic acid, which can be detected by its absorbance at 412 nm (ε=13,600 M-1 cm-1 at pH 6.0 and above 7). Data is reflected as % inhibition of the purified enzyme activity.

MMP9 = target: T5, MMP9 (Homo sapiens, UniProt P14780); assay: Matrix metalloproteinase enzyme activity assay, MMP9; conditions: for MMP9 Inhibition (0.001%): 0.001% test compound, Table 2; for MMP9 Inhibition (0.001%) / MMP9 Inhibition (0.01%): negative = inhibition vs diluent control; for MMP9 Inhibition (0.01%) / inhibition at 0.01 %: 0.01% test compound, Table 3
T5 construct: purchased BioMol International AK-410
Text: as §3

T4 sequence (P08254 100-272 limits assumed): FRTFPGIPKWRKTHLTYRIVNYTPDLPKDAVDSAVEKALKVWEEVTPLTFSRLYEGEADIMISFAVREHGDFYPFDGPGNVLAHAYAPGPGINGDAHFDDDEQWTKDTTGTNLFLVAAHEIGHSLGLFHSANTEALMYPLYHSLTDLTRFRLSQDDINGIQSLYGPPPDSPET
T5 sequence (P14780 107-444 limits assumed): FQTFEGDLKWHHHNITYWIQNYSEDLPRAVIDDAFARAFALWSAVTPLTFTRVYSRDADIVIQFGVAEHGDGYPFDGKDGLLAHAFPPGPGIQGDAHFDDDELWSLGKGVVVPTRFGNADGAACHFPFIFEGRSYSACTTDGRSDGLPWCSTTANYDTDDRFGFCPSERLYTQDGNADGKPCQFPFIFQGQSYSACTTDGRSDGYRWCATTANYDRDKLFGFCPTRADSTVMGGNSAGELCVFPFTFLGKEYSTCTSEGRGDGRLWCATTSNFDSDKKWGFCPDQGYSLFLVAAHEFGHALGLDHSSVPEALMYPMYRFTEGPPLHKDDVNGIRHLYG

1-(1,2,3,4,5,6,7,8-octahydro-2,3,8,8-tetramethyl-2-naphthalenyl)ethan-1-one; 1-(2,3,8,8-tetramethyl-1,2,3,5,6,7,8,8a-octahydronaphthalen-2-yl)ethanone; and 1-(2,3,8,8-tetramethyl-1,2,3,4,6,7,8,8a-octahydronaphthalen-2-yl)ethanone [Iso E super]
Cox-2 Inhibition (0.001%) (COX-2; Table 3): −20.80%

2,6-nonadien-1-al (trans, trans; trans, cis)
Cox-1 Inhibition (0.020%) (COX-1): −11.42%
Cox-2 Inhibition (0.001%) (COX-2; Table 2): −17.58%
LO Inhibition (0.1%) (15-lipoxygenase): −45.58%
MMP3 Inhibition (0.001%) (MMP3): −20.34%
MMP9 Inhibition (0.001%) (MMP9): −32.53%

3-hexen-1-ol (E) and (Z)
Cox-2 Inhibition (0.001%) (COX-2; Table 3): −23.56%
MMP9 Inhibition (0.01%) (MMP9): −23.82%

3a,4,5,6,7,7a-hexahydro-4,7-methano-1h-inden-5(or 6)-yl acetate [Cyclacet]
LO Inhibition (0.1%) (15-lipoxygenase): −26.37%

CCCC/C=C/C=C/C=O [2,4-nonadien-1-al]
inhibition at 0.001 % (COX-2; Table 2): 21.1%
MMP3 Inhibition (0.001%) (MMP3): −23.75%
MMP9 Inhibition (0.001%) (MMP9): −19.87%

CCCCCCCCC/C=C/C=O [2-dodecenal (E)]
MMP9 Inhibition (0.001%) (MMP9): −24.98%

CC/C=C(\C)C(O)CCCCC (stereo not drawn) [4-methyl-3-decen-5-ol]
inhibition at 0.01 % (MMP9): 28.1%

CCCCCCCCCCCC=O [Aldehyde C-12 Lauric, 1-dodecanal]
MMP9 Inhibition (0.001%) (MMP9): −27.64%

CCCCCC1CCC(=O)O1 (stereo not drawn) [Aldehyde C-18, 5-pentyldihydrofuran-2(3H)-one]
inhibition at 0.001 % (COX-2; Table 3): 22.6%
inhibition at 0.01 % (MMP9): 22.2%

CC(=O)/C=C/C1=C(C)CCCC1(C)C [Beta Ionone, (3E)-4-(2,6,6-trimethylcyclohex-1-en-1-yl)but-3-en-2-one]
MMP9 Inhibition (0.001%) (MMP9): −19.82%

CC/C=C\CCCCC=O [Cis-6-Nonenal, cis-6-nonenal]
inhibition at 0.001 % (COX-2; Table 3): 27.1%
inhibition at 0.01 % (MMP9): 19.2%

CC(=O)OCCC(C)CCC=C(C)C (stereo not drawn) [Citronellyl Acetate, 3,7-dimethyl-6-octen-1-yl acetate]
Cox-1 Inhibition (0.001%) (COX-1; 0.001% test compound, Table 4): −27.99%
inhibition at 0.001 % (COX-2; Table 4): 20.9%

O=C1CCCCCCCCCCCC(=O)OCCO1 [Ethylene Brassylate, 1,4-dioxacycloheptadecane-5,17-dione]
inhibition at 0.001 % (COX-2; Table 3): 20.6%
inhibition at 0.01 % (MMP9): 33%

CCOC(=O)C1C2C=CC(C2)C1C(C)C (stereo not drawn) [Herbanante, ethyl 3-isopropylbicyclo[2.2.1]hept-5-ene-2-carboxylate]
inhibition at 0.001 % (COX-2; Table 3): 25.1%
inhibition at 0.01 % (MMP9): 26.8%

CCC/C=C\COC(C)=O [Leaf Acetate, cis-2-hexenyl acetate]
inhibition at 0.01 % (MMP9): 22%

CC(C)=CCCC(C)C=O (stereo not drawn) [Melanol, 2,6-dimethyl-5-heptenal]
LO Inhibition (0.1%) (15-lipoxygenase): −20.45%

CC1=CCC(/C=C/C(C)(C)C(C)O)C1(C)C (stereo not drawn) [Polysantol, 3,3-dimethyl-5(2,2,3-trimethyl-3-cyclopenten-1-yl)-4-penten-2-ol]
inhibition at 0.001 % (COX-2; Table 3): 36.1%

CC(C)=CCCC1=CCCC(C)(C=O)C1 (stereo not drawn) [Precyclemone B, 1-methyl-3-(4-methylpent-3-enyl)cyclohex-3-enecarbaldehyde]
MMP3 Inhibition (0.001%) (MMP3): −25.09%

C=C1CCCC(C)(C)C1C(=O)OC (stereo not drawn) [Romascone ®, methyl 2,2-dimethyl-6-methylenecyclohexanecarboxylate]
inhibition at 0.001 % (COX-2; Table 3): 23.3%

CCC/C(CC(=O)CC)=N/O [Stemone, (Z)-5-(hydroxyimino)octan-3-one]
inhibition at 0.001 % (COX-2; Table 3): 22.3%

CC(=O)OC1CCC(C(C)(C)C)CC1 (stereo not drawn) [Vertenex ® H.C., 4-tert-butylcyclohexyl acetate]
Cox-1 Inhibition (0.020%) (COX-1): −18.50%
LO Inhibition (0.1%) (15-lipoxygenase): −37.86%

(2,4,6-)trimethyl-3-cyclohexene-1-carboxaldehyde and (3,5,6-)trimethyl-3-cyclohexene-1-carboxaldehyde [Iso Cyclo Citral]
Cox-2 Inhibition (0.001%) (COX-2; Table 3): −31.58%
MMP9 Inhibition (0.01%) (MMP9): −21.78%
